# In patent US20120276560A1, “BIOMARKERS FOR ASSESSING SIALIC ACID DEFICIENCIES” (priority 2010, published 2012):
# What was measured:
# PSA-NCAM [1] = test: Neuraminidase digestion of normal human serum, Western blot with C-20 polyclonal antibody; type: biochemical; conditions: 37° C. 4 hours, 0.35 m unit enzyme per μl serum, FIG. 5 lane 5
# Description: Experiments were performed to investigate the pattern of serum PSA-NCAM sialylation between normal controls and HIBM patients using a polyclonal antibody raised against human PSA-NCAM. Human serum was purified by a two-steps protocol to enrich PSA-NCAM. Raw sera from both normal human and HIBM patient were extracted by Mem-PER® membrane protein extraction kit (Thermo Scientific) according to the manufacturer's protocol. Serum was first mixed with a detergent and then a second detergent was added to solubilize membrane proteins. After centrifugation at 10,000 g for 3 minutes, the mixture was incubated at 37° C. to separate hydrophobic proteins from hydrophilic proteins through phase partitioning. The top hydrophilic layer was then further purified by SDS-PAGE sample prep kit (Thermo Scientific) to remove detergents and other contaminants that interfere with SDS-PAGE analysis.
# Purified serum was incubated with Vibrio cholera neuraminidase (Sigma) at 37° C. for 4 hours in order to cleave sialic acid (SA) from serum polysialic acid-glycoproteins, including PSA-NCAM. Digestion was carried out at a concentration of 0.35 m unit enzyme per μl of serum. […]
# Proteins were analyzed on a 10% Mini-Protean precast gel (BioRad) under reducing condition with 5% 2-mercaptoethanol. Final protein concentration was measured by Bradford Ultra (Expedeon). […]
# PSA-NCAM [2] = test: Neuraminidase digestion of normal human serum, Western blot with 123C3 antibody; type: biochemical; conditions: 37° C. 4 hours, 1 m unit enzyme per 3 μg protein, FIG. 4A lane 2, estimated
# Description: Experiments were performed to determine whether PSA-NCAM can be detected in human serum using well-defined mouse monoclonal antibodies raised against human PSA-NCAM (123C3). Human serum was purified by Aurum serum protein kit (Bio-Rad) to remove albumin and IgG which can interfere with SDS-PAGE analysis. Raw serum was diluted 4 times with protein binding buffer (supplied in the kit) and applied to the column. The albumin/IgG depleted serum was eluted by centrifugation at 10,000 g for 20 seconds and protein concentration was determined by modified Lowry assay (Bio-Rad DC protein assay).
# Purified serum was incubated in neuraminidase from Vibrio cholera (Sigma) at 37° C. for 4 hours in order to cleave sialic acid (SA) from serum polysialic acid-glycoproteins, including PSA-NCAM. Digestion was carried out at a concentration of 1 m unit enzyme per 3 μg of protein in 20 mM Tris buffer, pH 5.8. A negative control was included in the experiment under the same condition but without adding the neuraminidase. At the end of incubation, the mixture was cleaned up with micro bio-spin P30 columns (BioRad).
# Proteins were analyzed on 10% denaturing Tris-glycine SDS-PAGE gel (Invitrogen) under reducing condition. […]
# PSA-NCAM [3] = test: Sialidase treatment of normal human serum, Western blot with RNL-1 antibody; type: biochemical; conditions: normal human serum treated with sialidase
# Description: (§1) Serum samples from normal individuals, HIBM patients before treatment, patients suffering from myopathy but not HIBM, and a HIBM patient on ManNAc therapy for 2 years were purified to reduce serum proteins. The samples were subjected to SDS PAGE and stained with a monoclonal antibody to NCAM (RNL-1, SantaCruz Biotech, Inc., CA) capable of detecting sialylated and unsialylated forms of NCAM (FIGS. 2 and 3). As a control, serum samples from healthy individuals were prepared as described above and treated with sialidase to remove sialic acid.
# (§2) For Western blotting, serum protein was extracted from 50 ul serum samples using Mem-PER® Eukaryotic Membrane Protein Extraction Reagent Kit (Thermo Scientific), then the hydrophilic (top) layer was cleaned and purified by SDS-PAGE Sample Prep Kit (Thermo Scientific). Final protein concentration was measured by BradfordUltra (Expedeon), and […] protein (15 uL) loaded per lane for electrophoresis separation. […] Primary (RNL-1, SantaCruz Biotech, Inc., CA) and secondary antibodies were applied, and detected using horseradish peroxidase (HRP) chemi-luminescence substrate (FIG. 3). […]
# (§3) For desialylated control sample, serum protein from healthy non-myopathic individuals was treated with Vibrio cholerae neuroaminidase (Sigma) (FIG. 3, lane 8). HIBM patients who were routinely ingesting N-Acetylmannosamine (ManNAc) were analyzed as well (FIG. 3, lane 7).
# [4] = tested on: Gne^−/− hGNED176V-Tg mice; conditions: administration in water; Malicdan et al. 2009; cited from earlier work
# [5] = tested on: mice homozygous for the M712T Gne mutation; conditions: ManNAc in water to mutant mice; Galeano et al. 2007; cited from earlier work
# PSA-NCAM [6] = test: Western blot of serum PSA-NCAM (RNL-1 antibody) in HIBM patient on ManNAc; type: in vivo, human; conditions: serum of ManNAc self-treated HIBM patient (2 years), FIG. 3 lane 7
# Description: as §1, §2, §3
molecule,measurement,setting,value
"neuraminidase: neuraminidase from Vibrio cholera (Sigma), used to cleave sialic acid from serum glycoproteins",intensity of the 130 kDa and 60 kDa PSA-NCAM bands,PSA-NCAM [1],significantly reduced in intensity
same,reduction of molecular weight of the PSA-NCAM triplet,PSA-NCAM [2],10-15 kDa
same,upper and middle PSA-NCAM bands on Western blot,PSA-NCAM [3],disappeared
"CC(=O)N[C@H]1[C@H]([C@H](O)[C@H](O)CO)OC(O)(C(=O)O)C[C@@H]1O (some centres unmarked) [sialic acid, 5-N-acetylneuraminic acid]",muscle atrophy and weakness,[4],reduced or prevented
sialyl-lactose,muscle atrophy and weakness,[4],reduced or prevented
"CC(=O)N[C@@H]1C(O)O[C@H](CO)[C@@H](O)[C@@H]1O (some centres unmarked) [ManNAc, N-acetylmannosamine]",renal histology (podocyte foot processes),[5],improved renal histology
same,sialylation of brain PSA-NCAM,[5],increased sialylation of brain PSA-NCAM
same,sialylation of renal podocalyxin,[5],increased sialylation of renal podocalyxin
same,survival,[5],improved survival
same,muscle atrophy and weakness,[4],reduced or prevented
same,PSA-NCAM signal at ˜150 kD band on Western blot,PSA-NCAM [6],improved signal
